Here are results for six compounds from BindingDB's records for doi:10.1021/jm9705723 (Wayne State University School of Medicine, 1998).

Test [1] is described as follows: Inhibitory concentration against human immunodeficiency virus type 1 (HIV-1 strain IIIB RT) reverse transcriptase was determined by triplicate assay at low (~0.1 pfu/cell) multiplicity of […] (moi).
Test [2] can be described thus: Inhibitory concentration against human immunodeficiency virus type 1 (HIV-1 strain IIIB RT) reverse transcriptase was determined by triplicate assay at high (~1 pfu/cell) multiplicity of […] (moi).

Some results are limits rather than exact numbers.

By IC50 is commonly meant the point on the concentration scale where inhibition reaches its midpoint. Take `Cc1cn([C@H]2C[C@H](N=[N+]=[N-])[C@@H](CO)O2)c(=O)[nH]c1=O` [1-((2R,4S,5S)-4-Azido-5-hydroxymethyl-tetrahydro-furan-2-yl)-5-methyl-1H-pyrimidine-2,4-dione]: the IC50 stood at 0.003 µM in test [1] and 0.017 µM in test [2]. The corresponding values for `Nc1nc2c(ncn2/C=C2\CC2CO)c(=O)[nH]1` (stereo unspecified) [2-Amino-9-[2-hydroxymethyl-cycloprop-(E)-ylidenemethyl]-1,9-dihydro-purin-6-one] are 1.9 µM and greater than 30 µM.

As to `Nc1nc2c(ncn2/C=C2/CC2CO)c(=O)[nH]1` (stereo unspecified) [2-Amino-9-[2-hydroxymethyl-cycloprop-(Z)-ylidenemethyl]-1,9-dihydro-purin-6-one], the figures for the IC50 in test [1] and in test [2] were 1.1 µM and greater than 30 µM, respectively.

Consider `Nc1ncnc2c1ncn2/C=C1/CC1CO` (stereo unspecified) [[2-(6-Amino-purin-9-ylmethylene)-cyclopropyl]-methanol], for which the IC50 came out at 0.8 µM in test [1] and 20 µM in test [2]. In turn, `Nc1nc(Cl)c2ncn(/C=C3\CC3CO)c2n1` (stereo unspecified) [{2-[1-(2-Amino-6-chloro-purin-9-yl)-meth-(E)-ylidene]-cyclopropyl}-methanol] had an IC50 in test [1] greater than 100 µM.

Turning to `Nc1ncnc2c1ncn2/C=C1\CC1CO` (stereo unspecified) [{2-[1-(6-Amino-purin-9-yl)-meth-(E)-ylidene]-cyclopropyl}-methanol], the IC50 in test [1] was 14 µM; in test [2], greater than 100 µM.
